Activity calls are given as the source filed them. The calls are words filed in the database; no cut-off is given here.
What was measured:
[1] = target: Acetylcholinesterase (Electrophorus electricus) (UniProt O42275); assay: Inhibition of electric eel AChE using acetylthiocholine iodide as substrate at 10 uM preincubated with enzyme for 5 mins prior to substrate addition measured after 5 mins by Ellman's method relative to control
Histamine H3 receptor [2] = target: T1, Histamine H3 receptor (Homo sapiens, UniProt Q9Y5N1); assay: Displacement of [125I]Iodoproxyfan from human histamine H3 receptor stably expressed in CHOK1 cells after 60 mins; assay type: cell-based
[3] = target: Cholinesterase (Equus caballus) (UniProt P81908); assay: Inhibition of equine serum BChE using butyrylthiocholine iodide as substrate at 10 uM preincubated with enzyme for 5 mins prior to substrate addition measured after 5 mins by Ellman's method relative to control
Histamine H3 receptor [4] = target: T1, Histamine H3 receptor; assay: Displacement of [3H]-N-alpha-methylhistamine from human histamine H3 receptor stably expressed in HEK293 cell membrane after 90 mins
Cholinesterase [5] = target: T2, Cholinesterase (Equus caballus, UniProt P81908)
Description: Inhibition of equine serum BChE using butyrylthiocholine iodide as substrate preincubated with enzyme for 5 mins prior to substrate addition measured after 5 mins by Ellman's method

Acetylcholinesterase [6] = target: T3, Acetylcholinesterase (Homo sapiens, UniProt P22303); assay: Inhibition of recombinant human AChE using acetylthiocholine iodide as substrate preincubated with enzyme for 5 mins prior to substrate addition measured after 5 mins by Ellman's method
Acetylcholinesterase [7] = target: T3, Acetylcholinesterase; assay: Non-competitive inhibition of recombinant human AChE using acetylthiocholine iodide as substrate by Cornish-Bowden plot analysis
Acetylcholinesterase [8] = target: T3, Acetylcholinesterase; assay: Non-competitive inhibition of recombinant human AChE using acetylthiocholine iodide as substrate by Lineweaver-Burk plot analysis
Acetylcholinesterase [9] = target: T4, Acetylcholinesterase (Electrophorus electricus, UniProt O42275); assay: Inhibition of electric eel AChE using acetylthiocholine iodide as substrate preincubated with enzyme for 5 mins prior to substrate addition measured after 5 mins by Ellman's method
Cholinesterase [10] = target: T2, Cholinesterase; assay: Non-competitive inhibition of equine serum BChE using butyrylthiocholine iodide as substrate by Lineweaver-Burk plot analysis
Acetylcholinesterase [11] = target: T4, Acetylcholinesterase; assay: Non-competitive inhibition of electric eel AChE using acetylthiocholine iodide as substrate by Lineweaver-Burk plot analysis
Histamine H3 receptor [12] = target: T1, Histamine H3 receptor; assay: Displacement of [125I]Iodoproxyfan from human histamine H3 receptor stably expressed in HEK293 cells after 60 mins; assay type: cell-based

T4 sequence (O42275 whole entry): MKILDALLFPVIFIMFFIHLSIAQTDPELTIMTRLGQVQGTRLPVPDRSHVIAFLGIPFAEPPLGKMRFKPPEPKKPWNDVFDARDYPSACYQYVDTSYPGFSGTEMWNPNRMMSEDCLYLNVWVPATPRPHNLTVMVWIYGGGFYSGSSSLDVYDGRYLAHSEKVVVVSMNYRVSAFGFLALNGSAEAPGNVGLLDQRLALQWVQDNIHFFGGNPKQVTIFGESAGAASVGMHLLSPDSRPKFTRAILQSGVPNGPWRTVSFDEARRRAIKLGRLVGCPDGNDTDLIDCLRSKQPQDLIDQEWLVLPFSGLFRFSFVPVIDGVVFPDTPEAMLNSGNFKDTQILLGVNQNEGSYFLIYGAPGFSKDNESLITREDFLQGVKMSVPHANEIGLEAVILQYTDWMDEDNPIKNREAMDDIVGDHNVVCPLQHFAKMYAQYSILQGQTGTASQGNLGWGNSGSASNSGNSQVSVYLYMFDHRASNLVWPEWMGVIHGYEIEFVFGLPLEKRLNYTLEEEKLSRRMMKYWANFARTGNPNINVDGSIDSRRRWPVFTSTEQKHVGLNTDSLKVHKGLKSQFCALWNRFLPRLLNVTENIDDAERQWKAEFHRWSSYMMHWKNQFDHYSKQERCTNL
Acetylcholinesterase (Electrophorus electricus), sequence (O42275 24-633 limits assumed): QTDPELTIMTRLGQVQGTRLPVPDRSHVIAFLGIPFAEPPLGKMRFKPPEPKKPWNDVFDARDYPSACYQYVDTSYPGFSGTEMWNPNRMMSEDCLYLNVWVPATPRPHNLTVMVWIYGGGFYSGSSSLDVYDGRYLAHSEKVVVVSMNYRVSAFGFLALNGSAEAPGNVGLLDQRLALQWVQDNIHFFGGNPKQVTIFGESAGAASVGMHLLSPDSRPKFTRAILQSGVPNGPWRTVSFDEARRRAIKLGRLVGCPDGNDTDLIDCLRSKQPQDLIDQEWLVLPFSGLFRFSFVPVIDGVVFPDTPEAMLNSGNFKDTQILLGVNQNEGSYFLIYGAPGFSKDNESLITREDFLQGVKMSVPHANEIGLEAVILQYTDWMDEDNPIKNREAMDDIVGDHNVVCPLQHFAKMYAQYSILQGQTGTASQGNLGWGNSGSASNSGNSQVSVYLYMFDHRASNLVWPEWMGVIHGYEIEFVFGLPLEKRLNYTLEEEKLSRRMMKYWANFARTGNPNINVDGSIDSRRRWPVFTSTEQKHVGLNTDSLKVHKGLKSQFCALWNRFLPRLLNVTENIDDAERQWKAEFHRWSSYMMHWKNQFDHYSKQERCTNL
T1 sequence (Q9Y5N1 whole entry): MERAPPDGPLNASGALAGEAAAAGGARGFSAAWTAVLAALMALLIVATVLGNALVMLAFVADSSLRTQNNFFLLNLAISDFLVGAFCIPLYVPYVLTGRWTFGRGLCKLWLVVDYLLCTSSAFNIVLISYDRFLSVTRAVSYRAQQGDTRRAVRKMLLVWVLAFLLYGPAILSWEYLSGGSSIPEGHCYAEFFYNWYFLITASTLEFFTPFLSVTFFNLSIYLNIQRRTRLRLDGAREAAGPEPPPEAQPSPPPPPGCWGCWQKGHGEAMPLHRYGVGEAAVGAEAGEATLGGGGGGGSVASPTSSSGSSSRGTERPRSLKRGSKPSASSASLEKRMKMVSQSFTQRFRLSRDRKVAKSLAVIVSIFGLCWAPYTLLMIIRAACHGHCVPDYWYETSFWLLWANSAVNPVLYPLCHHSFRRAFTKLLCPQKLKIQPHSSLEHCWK
Cholinesterase (Equus caballus), sequence (P81908 whole entry): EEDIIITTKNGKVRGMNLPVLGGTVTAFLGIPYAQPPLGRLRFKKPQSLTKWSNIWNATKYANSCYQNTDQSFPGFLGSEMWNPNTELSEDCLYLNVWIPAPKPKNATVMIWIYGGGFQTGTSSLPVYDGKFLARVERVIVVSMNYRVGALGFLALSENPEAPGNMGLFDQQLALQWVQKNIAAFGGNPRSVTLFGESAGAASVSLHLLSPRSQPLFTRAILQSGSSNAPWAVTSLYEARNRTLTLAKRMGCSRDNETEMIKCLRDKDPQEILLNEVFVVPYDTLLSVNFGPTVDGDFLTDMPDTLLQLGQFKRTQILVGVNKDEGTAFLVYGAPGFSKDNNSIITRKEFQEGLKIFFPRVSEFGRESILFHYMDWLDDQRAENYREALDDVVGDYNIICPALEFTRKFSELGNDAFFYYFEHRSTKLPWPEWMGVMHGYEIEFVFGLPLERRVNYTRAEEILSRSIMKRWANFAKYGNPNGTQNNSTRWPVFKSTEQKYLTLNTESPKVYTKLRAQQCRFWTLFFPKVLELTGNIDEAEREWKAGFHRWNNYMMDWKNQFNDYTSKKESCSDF
T2 sequence (P81908 whole entry): as above
T3 sequence (P22303 whole entry): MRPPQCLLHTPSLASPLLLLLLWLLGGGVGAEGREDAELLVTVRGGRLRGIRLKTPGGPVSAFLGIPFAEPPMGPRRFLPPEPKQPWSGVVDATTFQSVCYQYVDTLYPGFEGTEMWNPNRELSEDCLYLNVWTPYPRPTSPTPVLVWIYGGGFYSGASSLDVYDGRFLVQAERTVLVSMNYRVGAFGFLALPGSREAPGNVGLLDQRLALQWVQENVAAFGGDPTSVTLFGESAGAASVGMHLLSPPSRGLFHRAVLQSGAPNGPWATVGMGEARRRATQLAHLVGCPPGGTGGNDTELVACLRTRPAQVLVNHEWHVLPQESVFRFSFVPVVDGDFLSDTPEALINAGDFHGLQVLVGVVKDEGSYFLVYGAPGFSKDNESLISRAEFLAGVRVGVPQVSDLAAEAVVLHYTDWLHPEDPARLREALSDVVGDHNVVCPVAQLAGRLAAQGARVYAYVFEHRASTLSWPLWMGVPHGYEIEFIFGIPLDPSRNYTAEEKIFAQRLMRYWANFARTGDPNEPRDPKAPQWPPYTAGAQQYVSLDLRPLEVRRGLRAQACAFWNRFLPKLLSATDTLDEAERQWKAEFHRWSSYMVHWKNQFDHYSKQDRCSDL

| Structure (SMILES) | inhibition [1] [%] | Ki (Histamine H3 receptor [2]) [nM] | inhibition [3] [%] | Ki (Histamine H3 receptor [4]) [nM] | IC50 (Cholinesterase [5]) [nM] | IC50 (Acetylcholinesterase [9]) [nM] | further results |
| --- | --- | --- | --- | --- | --- | --- | --- |
| CCOc1ccccc1N1CCN(CCCOCCCc2ccccc2)CC1 | 3.36 | > 1000 | 46 |  |  |  |  |
| CCc1ccc(OCCCCCCN2CCC(C)CC2)cc1 | 23.5 |  | 75.1 | 181 | 3920 |  |  |
| C(=C\c1ccccc1)/CN1CCN(CCCOCCCc2ccccc2)CC1 | 0 | 690 | 37.8 |  |  |  |  |
| c1ccc(CCCOCCCN2CCN(Cc3ccccc3)CC2)cc1 | 18.8 | > 1000 | 33.9 |  |  |  |  |
| O=C(c1ccc(OCCCN2CCN(C/C=C/c3ccccc3)CC2)cc1)C1CC1 | 8.85 | 83 | 38.4 |  |  |  |  |
| Cc1ccc2oc(-c3ccc(OCCCCCCN4CCCCC4)cc3)cc(=O)c2c1 | 95.6 |  | 99.6 | 228 | 760 | 500 | IC50 (Acetylcholinesterase [6]): 360 nM; inhibition (Acetylcholinesterase [7]): Active; Ki (Acetylcholinesterase [8]): 129 nM |
| Clc1ccc(CCCOCCCN2CCCCC2)cc1 | 3.04 |  | 55.7 |  |  |  |  |
| O=C(c1ccccc1Cl)N1CCN(CCCOCC2CCC2)CC1 | 0 | > 1000 | 0 |  |  |  |  |
| Cc1ccc2oc(-c3ccc(OCCCCCCN4CCCCCC4)cc3)cc(=O)c2c1 | 95.9 |  | 99.5 | 160 | 440 | 460 | IC50 (Acetylcholinesterase [6]): 480 nM; Ki (Cholinesterase [10]): 281 nM; Ki (Acetylcholinesterase [11]): 176 nM |
| Cc1ccc2oc(-c3ccc(OCCCCCCN4CCCC(C)C4)cc3)cc(=O)c2c1 (centres undefined) | 94 |  | 99.4 | 60 | 1090 | 800 |  |
| CC1CCCN(CCCCCCOc2ccc3c(c2)C(=O)CC(c2ccccc2)O3)C1 (centres undefined) | 91.5 |  | 90.3 | 523 | 1900 | 800 |  |
| O=C(c1ccc(OCCCN2CCN(c3ccccc3)CC2)cc1)C1CC1 | 7.58 |  | 11.2 |  |  |  | Ki (Histamine H3 receptor [12]): 111 nM |
| CCc1ccc(OCCCCCCN2CCCCCC2)cc1 | 30.8 |  | 85.7 | 84.3 | 1900 |  |  |

Reference: ChEMBL document CHEMBL4373738, “Search for new multi-target compounds against Alzheimer's disease among histamine H3 receptor ligands” (Eur J Med Chem, 2020)
